Measured values from PMC5923396 (Marine Drugs, 2018).
Read-outs that look alike come from different tables or passages of the source.

Tests used:
[1] = set-up: method as in earlier work; conditions: cited from earlier work
GABAAR = conditions: cited from earlier work
α4β2 nAChR = α4β2 nAChR (Rattus norvegicus, UniProt P09483+P12390); type: binding; conditions: test ligand concentrations up to 1 mM
different types of cells = tested on: different types of cells; set-up: method as in doi:10.1016/S0040-4020(01)96256-8; conditions: cited from earlier work
α1β3γ2 GABAAR [2] = biological target: T1, α1β3γ2 GABAAR (Mus musculus, UniProt P62812+P63080); assay: Fluorescent α-Ctx competition assay on Neuro2a cells; type: binding, murine; set-up: expressed in transfected cells; host or cells: mouse neuroblastoma Neuro2a cells, transient transfection; conditions: 50 μM MG
murine muscle nAChR = biological target: T2, murine muscle nAChR (Mus musculus, UniProt P02716+P04756+P20782); assay: Two-electrode voltage clamp, acetylcholine-evoked current in Xenopus oocytes; type: cell-based; conditions: for inhibition at 2.5 µM: holding potential −70 mV, read-out: inhibition extent, peak current amplitude
T2 construct: expressed in transfected cells; host or cells: Xenopus oocytes injected with plasmid DNA (pRBG4 vector)

[3] = biological target: T3, Torpedo californica muscle-type nAChR (Tetronarce californica, UniProt P02710+P02714+P02718); assay: Intrinsic tryptophan fluorescence quenching; type: binding; conditions: 2 μM MG; λex 280 nm, λem 340 nm; prevented by α-Bgt pre-incubation
T3 construct: from tissue; host or cells: Torpedo californica electric organ membranes
Protocol: Intrinsic tryptophane fluorescence detection. Electric organ membranes of Torpedo californica at the final concentration of 1 nM of toxin-binding sites in a 20 mM Tris-HCl buffer were mixed with Makaluvamine G (final concentration 2 μM) and the control membranes were pre-incubated with 1 μM αBgt for 30 min. Measurements were done on a Cary Eclipse (Agilent, Santa Clara, CA, USA) spectrofluorimeter with a standard kinetics software (version 1.2) with excitation wavelength 280 nm and emission wavelength 340 nm (both with 5 nm slits). The data were exported to csv files and analyzed in the LibreOffice 6.0 Calc software (The Document Foundation, Berlin, Germany).

mice [4] = tested on: mice; set-up: method as in doi:10.1016/S0040-4020(01)96256-8; conditions: cited from earlier work
human α7 nAChR = tested on: human α7 nAChR; set-up: method as in PMID 24686559; conditions: cited from earlier work
α1β3γ2 GABAAR [5] = biological target: T1, α1β3γ2 GABAAR; assay: Two-electrode voltage clamp, GABA-evoked currents in Xenopus oocytes; type: cell-based, murine; conditions: 25 μM MG; surmountable by higher GABA concentrations
[6] = biological target: T4, wild-type (WT) muscle nAChR (Mus musculus, UniProt P02716+P04756+P20782); assay: Fluorescent detection of cytoplasmic Ca2+ rise in transfected Neuro2a cells (Case12); type: cell-based; conditions: 2.5 μM MG, Ca2+ fluorescence
T4 construct: expressed in transfected cells; host or cells: mouse neuroblastoma Neuro2a cells, transient co-transfection with the Case12 calcium sensor

topoisomerase I = biological target: topoisomerase I; set-up: method as in doi:10.1016/S0040-4020(01)96256-8; conditions: read-out: IC50 topoisomerase I inhibiting; cited from earlier work
mice [7] = assay: In vivo toxicity in mice (literature); conditions: corresponds to 210 mg/kg
rat α4β2 nAChR = biological target: T5, rat α4β2 nAChR (Rattus norvegicus, UniProt P09483+P12390); assay: Two-electrode voltage clamp, ACh-evoked currents in Xenopus oocytes; type: cell-based
T5 construct: expressed in transfected cells; host or cells: Xenopus oocytes injected with plasmid DNA (pcDNA 3.1 vector)

homopentameric α1 GlyR = tested on: homopentameric α1 GlyR; set-up: method as in PMID 24686559; conditions: cited from earlier work

Compound: COc1cc2c3cc1Oc1cc(ccc1O)C[C@@H]1c4c(cc(OC)c(O)c4Oc4ccc(cc4)C[C@@H]3N(C)CC2)CC[N+]1(C)C [d-tubocurarine]
- LD50 [1]: less than 0.7 μmole/kg
- affinity at GABAAR (GABAAR): sub-micromolar

Compound: Cn1cc2c3c1C(=O)C(N/C=C/c1ccc(O)cc1)=CC3=[N+](C)CC2 [MG, Makaluvamine G]
- inhibition of [3H]-epibatidine binding (α4β2 nAChR): partial
- concentrations showing cytotoxicity (different types of cells): 1000 to 70000 nM
- inhibition of fluorescent α-Ctx binding (α1β3γ2 GABAAR [2]): Only partial inhibition
- inhibition at 2.5 µM (murine muscle nAChR; 2.5 μM MG co-applied with 10 μM acetylcholine): 27%
- inhibition at 2.5 µM (murine muscle nAChR; 2.5 μM MG co-applied with 1000 μM acetylcholine): 81%
- dependence of inhibition on membrane potential (open-channel block) (murine muscle nAChR; 2.5 μM MG, 30 μM acetylcholine, −30 to −100 mV, current amplitude and net charge): No increase in the inhibition
- intrinsic Trp fluorescence quenching [3]: induces a drop of intrinsic tryptophan fluorescence
- dose not toxic to mice (mice [4]): up to 210 mg/kg
- potency at muscle nAChR relative to human α7 nAChR (human α7 nAChR): at least one order of magnitude more potent
- inhibition of GABA-evoked currents (α1β3γ2 GABAAR [5]): inhibits
- effect on WT receptor dose response to acetylcholine [6]: does not affect
- IC50 (topoisomerase I): ~3 µM
- dose not toxic to mice, molar (mice [7]): 629 µmol/kg
- inhibition of ACh-evoked currents (rat α4β2 nAChR; high micromolar range (25 μM MG, 50 μM acetylcholine)): only weak inhibition
- time to recovery of normal current amplitude after washout (rat α4β2 nAChR; reversibility of inhibition, data not shown): 15 to 20 min
- inhibition of α1 GlyR (homopentameric α1 GlyR): does not inhibit

Compound: α-cobratoxin
- affinity at GABAAR (GABAAR): sub-micromolar
